Experimental data taken from paper PMC12028472, “Marine-Derived Yaequinolone Derivative CHNQD-02792 Suppresses Colorectal Cancer Cell Proliferation and Induces Apoptosis via MAPK Pathway Modulation” (Marine Drugs, 2025).

Tests used:
LoVo = assay: MTT assay, LoVo cells; format: cell-based; details: Homo sapiens, 72 h
Method: (§1) Human colorectal adenocarcinoma cells HT-29, HCT-116, DLD-1, LS-174T, RKO, and LoVo, as well as mouse colorectal carcinoma cell CT-26, were purchased from the Chinese Academy of Sciences Shanghai Cell Bank.
(§2) Cells stored at −80 °C were rapidly thawed in a 37 °C water bath, centrifuged to collect, and resuspended in a complete medium for culturing in a 37 °C, 5% CO2 incubator. Then, they were rinsed twice with PBS, digested with trypsin, and resuspended in a complete medium after detachment. HT-29, HCT-116, DLD-1, and CT-26 cells were cultured in RPMI-1640 medium supplemented with 10% FBS and 1% penicillin-streptomycin. LS-174T cells were cultured in DMEM-H medium, LoVo in Ham’s F-12K medium, and RKO in MEM.
(§3) Cells in the logarithmic growth phase were seeded in 96-well plates at 4000 cells per well, adjusted based on growth rates, and incubated overnight at 37 °C with 5% CO2. Experimental wells were treated with yaequinolone derivatives at concentrations of 0.4, 2, 10, 20, and 50 μM, while control wells received equivalent dilutions of DMSO to minimize effects. Each group was prepared in five replicates and incubated for 72 h. After removing the drug-containing medium, 100 μL of MTT solution (5 mg/mL) was added to each well and incubated at 37 °C for 4 h. The solution was then aspirated, replaced with 200 μL of DMSO, incubated for 10 min at 37 °C, and shaken before measuring absorbance (OD) at 570 nm using a microplate reader. The tumor cell survival rate was calculated as follows: survival rate (%) = [(OD experimental group − OD blank group)/(OD control group − OD blank group)] × 100%. All experiments were conducted in triplicate.

CT-26 = assay: MTT assay, CT-26 cells; format: cell-based; details: Mus musculus, CT26, 72 h
Method: as §1, §2, §3

DLD-1 = assay: MTT assay, DLD-1 cells; format: cell-based; details: Homo sapiens, 72 h
Method: as §1, §2, §3

RKO = assay: MTT assay, RKO cells; format: cell-based; details: Homo sapiens, 72 h
Method: as §1, §2, §3

HT-29 = assay: MTT assay, HT-29 cells; format: cell-based; details: Homo sapiens, 72 h
Method: as §1, §2, §3

HCT-116 = assay: MTT assay, HCT-116 cells; format: cell-based; details: Homo sapiens, 72 h
Method: as §1, §2, §3

LS-174T = assay: MTT assay, LS-174T cells; format: cell-based; details: Homo sapiens, LS174T, 72 h
Method: as §1, §2, §3

RAW264.7 cells = assay: Inhibition of RAW264.7 cells (normal cells vs cancer cells); format: cell-based; details: Mus musculus
Text: Therefore, to verify the difference between CHNQD-02792 on normal cells and cancer cells, we examined the inhibition of CHNQD-02792 on RAW264.7 cells. […] The inhibition of HT-29 cell colony formation increased with higher concentrations of CHNQD-02792.

ERK = assay: Western blot, ERK phosphorylation in HT-29 cells; format: cell-based, human; details: HT-29, Western blot
Method: (§4) Cells in the logarithmic growth phase were seeded at 600,000 cells per well in 6-well plates and incubated overnight at 37 °C with 5% CO2. CHNQD-02792 (2.3, 4.5, and 9 μM) was added to the experimental group, while an equivalent dilution of DMSO was added to the control group. After 24 h of treatment, the cells were collected from the incubator. The cells were washed twice with pre-cooled PBS, and the proteins were extracted using ice-cold RIPA lysis buffer (RIPA-PMSF, 99:1, v/v). Adherent cells were scraped off the Petri dish with a pre-cooled plastic scraper. Protein concentrations were measured using a BCA kit. Protein samples were mixed with 5× loading buffer, boiled in a metal bath for 6 min, and stored at −20 °C. Proteins of different molecular weights were separated by gel electrophoresis and transferred onto PVDF membranes using wet transfer. The membrane was blocked with 5% skimmed milk powder for 2 h, followed by incubation with the primary antibody overnight at 4 °C. After three washes with TBST (10 min each), the membrane was incubated with the secondary antibody at room temperature for 1 h. It was then washed three times with TBST (10 min each) and analyzed using a gel imaging system with a high-sensitivity ECL luminescent solution.

Caspase-3 = assay: Western blot, Caspase-3 expression in HT-29 cells; format: cell-based, human; details: HT-29, increasing concentrations (2.3, 4.5, 9 μM)
Method: as §4

[1] = test system: LPS-induced RAW264.7 cells; design: method as in PMID 36758306; details: 50 nM; cited from earlier work
CDK1 = assay: Western blot, CDK1 expression in HT-29 cells; format: cell-based, human; details: HT-29, increasing concentrations (2.3, 4.5, 9 μM)
Method: as §4

Bcl-2 = assay: Western blot, Bcl-2 expression in HT-29 cells; format: cell-based, human; details: HT-29, increasing concentrations (2.3, 4.5, 9 μM)
Method: as §4

Cyclin B1 = assay: Western blot, Cyclin B1 expression in HT-29 cells; format: cell-based, human; details: HT-29, increasing concentrations (2.3, 4.5, 9 μM)
Method: as §4

HT-29 cells [2] = assay: Apoptosis assay (Annexin V-FITC/PI flow cytometry); format: cell-based, human
Method: Cells in the logarithmic growth phase were seeded at 600,000 cells per well in 6-well plates and incubated overnight at 37 °C in a 5% CO2 incubator. CHNQD-02792 (2.3, 4.5, 9 μM) was added to the experimental group, while the control group received an equal dilution of DMSO. After 48 h, cells were collected, centrifuged at 300× g for 5 min, and washed once with PBS. The cells were gently resuspended and counted. Take 1–5 × 10^5 resuspended cells, centrifuge at 300× g for 5 min, and discard the supernatant. The cells were washed once with PBS, centrifuged again, and the supernatant was discarded. Then, 500 μL of 1× diluted Annexin V Binding Buffer was added to resuspend the cells. Add 5 μL of Annexin V-FITC and 5 μL of PI (50 μg/mL) to the cell suspension. After gently vortexing, incubate the samples at room temperature in the dark for 15–20 min. Immediately analyze the samples using a flow cytometer. The results were analyzed using Novoexpress software (v.1.6.2).

JNK = assay: Western blot, JNK phosphorylation in HT-29 cells; format: cell-based, human; details: HT-29, Western blot
Method: as §4

Bax = assay: Western blot, Bax expression in HT-29 cells; format: cell-based, human; details: HT-29, increasing concentrations (2.3, 4.5, 9 μM)
Method: as §4

HT-29 cells [3] = assay: Cell cycle assay (PI, flow cytometry); format: cell-based, human; details: highest concentration, 48 h, control 16.42%
Method: Cells in the logarithmic growth phase were seeded at 350,000 cells per well in 6-well plates and incubated overnight at 37 °C with 5% CO2. CHNQD-02792 (2.3, 4.5, 9 μM) was added to the experimental group, while an equal dilution of DMSO was added to the control group. After 48 h, cells were collected, centrifuged at 300× g for 5 min at 4 °C, and resuspended in 1 mL of ice-cold PBS. This step was repeated, and the supernatant was discarded. The cells were then resuspended in 300 μL of PBS, and 700 μL of pre-cooled anhydrous ethanol was added dropwise for fixation at 4 °C overnight. Within 12–24 h, cells were centrifuged at 1000× g for 5 min, and the supernatant was discarded. The cells were washed with 1 mL of pre-cooled PBS, centrifuged again, and resuspended in 500 μL of PBS. RNase A and PI were then added to each tube, […]. The cells were incubated at 4 °C with RNase A and PI in the dark for 30 min. Data were collected using a flow cytometer (488 nm laser excitation, 620/29 nm filter), and results were analyzed using FlowJo software (v.10.8.1).

HT-29 cells [4] = assay: Plate colony formation assay; format: cell-based, human; details: 9 μM, 14 days
Method: Cells in the logarithmic growth phase were seeded at 1000 per well in 6-well plates and incubated overnight at 37 °C with 5% CO2. CHNQD-02792 (2.3, 4.5, and 9 μM) was added to the experimental group, while the control group received an equal dilution of DMSO. The medium color was monitored regularly, and the medium was replaced simultaneously in both groups. After 14 days, clonal clusters (approximately 50 cells) were formed. The cells were washed with PBS, fixed with 4% paraformaldehyde for 1 h, stained with crystal violet for 30 min, washed again with PBS, dried, photographed, and analyzed using Image J software (v 1.8.0.) to count colonies. The cell proliferation rate was calculated by comparing the experimental group with the control group treated with DMSO.

[5] = test system: LPS-induced RAW264.7 cells; design: method as in PMID 36758306; details: 10 nM; cited from earlier work

Row | SMILES | IC50 (LoVo) | IC50 (CT-26) | IC50 (DLD-1) | IC50 (RKO) | IC50 (HT-29) | IC50 (HCT-116) | IC50 (LS-174T) | other results
1 | COc1ccc([C@]2(O)c3c(ccc4c3O[C@](C)(CCC=C(C)C)C=C4)N(Cc3cccc(Br)c3)C(=O)[C@H]2OC)cc1 [Compound 4] | > 50 µM | > 50 µM | > 50 µM | 48.3 µM | > 50 µM | > 50 µM | > 50 µM | 
2 | COc1ccc([C@]2(O)c3c(ccc4c3O[C@@](C)(CCC=C(C)C)C=C4)N(Cc3cccc(Br)c3)C(=O)[C@H]2OC)cc1 [Compound 7] | 25 µM | > 50 µM | > 50 µM | 22 µM | > 50 µM | > 50 µM | > 50 µM | 
3 | CO[C@@H]1C(=O)Nc2ccc3c(c2[C@@]1(O)c1cccc(Br)c1)O[C@](C)(CCC=C(C)C)C=C3 [Compound 13] | 28.3 µM | > 50 µM | > 50 µM | 28 µM | 4.5 µM | 50 µM | 24.3 µM | IC50 (RAW264.7 cells): 27.2 µM; phosphorylation of ERK (ERK): inhibited; Caspase-3 protein expression (Caspase-3): significantly increased; IL-6 level [1]: significantly inhibiting; CDK1 protein expression level (CDK1): decreased; Bcl-2 protein expression (Bcl-2): markedly decreased; Cyclin B1 protein expression level (Cyclin B1): decreased; Q4 (early apoptotic cells) (HT-29 cells [2]; 9.0 μM, 48 h, HT-29, Annexin V-FITC/PI, control 5.31%): 20.23%; proportion of apoptotic cells (HT-29 cells [2]; 48 h of treatment, HT-29, control 6.81%): 26.10%; phosphorylation of JNK (JNK): increased; Bax protein expression (Bax): increased; proportion of cells in the G2/M phase (HT-29 cells [3]): 31.78%; growth of HT-29 cells, plate cloning assay (HT-29 cells [4]): completely inhibited; NO release [5]: significantly inhibiting
4 | O=c1[nH]cc(F)c(=O)[nH]1 [5-fluorouracil, reference compound] |  |  |  |  | 15.6 µM |  |  | 
5 | CO[C@@H]1C(=O)Nc2ccc3c(c2[C@@]1(O)c1cccc(Br)c1)O[C@@](C)(CCC=C(C)C)C=C3 [Compound 12] | > 50 µM | 26.3 µM | 11.6 µM | 37.3 µM | 42.8 µM | 25.8 µM | 7.7 µM | 
